This note sets out measurements from US20250388623A1, “PEPTIDE INHIBITOR AND USE THEREOF” (CHENGDU BRILLIANT INSPIRATION BIOTHERAPEUTICS CO., LTD, priority 2022, published 2025).

Test [1] has as its target T1, binding of TSP-1 protein to CD36, a TSP-1 receptor protein (Homo sapiens, UniProt P07996).
T1 construct: purchased novoprotein (TSP-1); R&D Systems (Fc-tagged CD36) CU45 (TSP-1); 1955-CD-050 (CD36-Fc)
As to the kind of experiment: ELISA: blocking of CD36 binding to TSP-1 protein. The conditions noted are these: for inhibition at 100 µM: 3 h, 100 μM polypeptide, 0.25 μg/mL Fc-tagged CD36, blocking of CD36 binding to TSP-1, read-out: Blocking rate (Mean, %); for IC50: concentrations 0-100 μM. An outline of the steps:
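Plate-bound TSP-1 (2 μg/mL coat) incubated 3 h at 37 °C with Fc-tagged CD36 (0.25 μg/mL final) ± polypeptide (100 μM final single-point; 0.5–100 μM for IC50); bound CD36 detected with FITC anti-Fc antibody fluorescence. Blocking rate = (control − treated)/control × 100%; IC50 from concentration dependence.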
For orientation: ELISA stands for enzyme-linked immunosorbent assay.

Test [2] deals with human liver cancer HepG2/C3A cells. Briefly: Transwell tumor cell migration, co-culture with PMA-differentiated THP-1 cells. It is filed as cell-based. The conditions noted are these: 100 μM polypeptide 48 h, co-culture 24 h; negative control group = 100.00. The protocol: (§1) This Example was to assess the effects of polypeptides on the migration abilities of different tumor cells. The experiment was performed using transwell nested chambers (membrane pore size of 8 μm), where THP-1 cells were inoculated in the lower chamber and treated with 300 nM PMA (Sigma, Catalog No.P1585) for differentiation and chamber-wall adherence, and then treated with 100 μM polypeptide (in the negative control, an equal volume of solvent was added) for 48 hours. The upper chamber was inoculated with tumor cells, human lung adenocarcinoma A549 cells (American Typical Culture Collection, ATCC, CCL-18), and co-cultured for 24 hours; or inoculated with human liver cancer HepG2/C3A cells (ATCC, CRL-10741), and co-cultured for 24 h; or inoculated with human breast cancer MCF7 cells (ATCC, HTB-22), and co-cultured for 48 h. After that, the upper chamber was taken out, fixed with 70% ethanol for 10 min and washed, then stained with Giemsa staining solution (Beyotime, Catalog No.C0131) for 45 min. After washing with double distilled water 2-3 times, unmigrated cells were wiped off the upper layer with a cotton swab. After the chamber was dried, it was observed under a microscope, and five different fields of view under a 100× magnification were randomly selected for counting and statistics. The polypeptides had significant inhibitory effects on the migratory abilities of human lung adenocarcinoma cells, human liver cancer cells, and human breast cancer cells.

For test [3], the system named is human lung adenocarcinoma A549 cells. Described as above. The class given is cell-based. The conditions noted are these: 100 μM polypeptide 48 h, co-culture 24 h; negative control group = 100.00. The protocol: as §1
Test [4] deals with human breast cancer MCF7 cells. The test is described as above. It is filed as cell-based. The conditions noted are these: 100 μM polypeptide 48 h, co-culture 48 h; negative control group = 100.00. The protocol: as §1
The test system of test [5] is rat fibrotic disease model (bleomycin). As to the kind of experiment: Lung index and fibrotic pathology (Masson's trichrome) in bleomycin rat fibrosis model. The class given is in vivo. As to conditions: for Lung index Mean(‰): 2 mg/kg intratracheal twice weekly x4 from Day 1, Day 15, BLM model 8.63, negative control 4.62; for Fibrosis score Mean: 2 mg/kg intratracheal twice weekly x4 from Day 1, Day 15, Masson's trichrome, BLM model 3.34, negative control 0.96. The protocol: This Example was to assess the inhibitory effect of polypeptide administration on the expression levels of pro-fibrotic factors at pathological fibrotic sites. 6- to 8-week-old male SD rats weighing 200 to 220 g were used as subjects for the study. The experimental animals were randomized into groups, 6 animals in each group. On the day of modeling (Day 1), a single dose of 1.8 USP/kg of bleomycin solution was administered via the tracheal route to the BLM model group and each peptide-treated group to induce the model. The negative control group was given an equal volume of saline. Starting on Day 1, each peptide-treated group received intratracheal administration of the peptide at a dosage of 2 mg/kg, with a dosing frequency of twice a week, for a total of four administrations. The BLM model group and the negative control group received an equal volume of solvent (saline) as a control, with the volume being 100 μL. The procedure followed that described in Example 4.
On Day 15, the lung tissues were dissected, washed with saline to remove blood stains, dried with gauze, and weighed. The lung index was calculated (lung index=(wet lung weight/body weight)×1000. This index reflects the general condition of the lung tissue, including edema, inflammation, and fibrosis). Histopathological analysis was performed on the dissected lung tissues. The lung tissues were perfused with 5 mL of paraformaldehyde via the trachea and placed in 40 mL of paraformaldehyde. A small amount of gauze was added to ensure the lung tissues were completely immersed in the fixative solution. The tissues were fixed for more than 24 hours. One lobe of the left lung and four lobes of the right lung were trimmed to the maximum coronal plane, and the left and right lungs were individually placed in two embedding cassettes, and then paraffin-embedded to make 3 μm sections. Masson's trichrome staining was performed as described in Example 7. After digital scanning, for each lung lobe, ≤10 visual fields were captured under a 10× magnification. The severity score of fibrosis was assessed to evaluate the inhibitory effects of the polypeptides on fibrotic deposition at pathological fibrotic sites.

Bridge positions count the residues as written; N and C are the ends. Peptide text beside a SMILES is read from it.

T1 sequence (P07996 19-1170): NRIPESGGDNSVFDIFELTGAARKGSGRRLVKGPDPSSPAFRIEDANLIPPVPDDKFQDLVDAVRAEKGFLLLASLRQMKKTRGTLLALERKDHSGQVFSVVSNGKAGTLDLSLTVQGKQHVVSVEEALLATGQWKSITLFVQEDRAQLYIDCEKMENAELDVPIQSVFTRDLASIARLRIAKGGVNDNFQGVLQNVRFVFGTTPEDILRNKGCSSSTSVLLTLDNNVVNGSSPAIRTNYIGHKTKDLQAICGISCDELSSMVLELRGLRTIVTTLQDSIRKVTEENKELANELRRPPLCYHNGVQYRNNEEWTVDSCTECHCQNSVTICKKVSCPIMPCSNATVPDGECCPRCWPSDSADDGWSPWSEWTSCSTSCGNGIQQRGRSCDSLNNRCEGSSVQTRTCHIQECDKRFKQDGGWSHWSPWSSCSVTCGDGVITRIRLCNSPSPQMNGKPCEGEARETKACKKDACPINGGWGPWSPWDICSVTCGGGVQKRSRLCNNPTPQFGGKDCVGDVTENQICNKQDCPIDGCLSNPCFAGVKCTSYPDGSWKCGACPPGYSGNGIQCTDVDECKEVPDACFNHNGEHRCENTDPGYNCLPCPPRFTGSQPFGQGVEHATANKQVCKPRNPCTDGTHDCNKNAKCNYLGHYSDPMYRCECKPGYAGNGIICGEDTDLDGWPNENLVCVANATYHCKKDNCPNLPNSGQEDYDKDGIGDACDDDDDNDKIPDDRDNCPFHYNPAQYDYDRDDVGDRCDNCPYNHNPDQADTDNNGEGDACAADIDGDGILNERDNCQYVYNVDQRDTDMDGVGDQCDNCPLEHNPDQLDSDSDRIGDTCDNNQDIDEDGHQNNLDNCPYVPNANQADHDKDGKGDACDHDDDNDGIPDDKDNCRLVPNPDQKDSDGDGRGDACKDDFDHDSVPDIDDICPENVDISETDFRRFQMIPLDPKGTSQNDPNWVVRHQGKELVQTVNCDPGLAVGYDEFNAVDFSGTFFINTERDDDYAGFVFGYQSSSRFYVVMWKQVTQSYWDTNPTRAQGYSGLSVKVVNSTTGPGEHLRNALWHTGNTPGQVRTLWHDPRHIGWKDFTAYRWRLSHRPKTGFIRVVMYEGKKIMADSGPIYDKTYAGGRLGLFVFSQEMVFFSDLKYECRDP

`C[C@@H]1NC(=O)[C@H](CC(=O)O)NC(=O)[C@H](CCC(N)=O)NC(=O)[C@H]([C@@H](C)O)NC(=O)[C@H](CC(N)=O)NC(=O)[C@H](CC(=O)O)NC(=O)[C@H](CCC(=O)O)NC1=O` [SEQ ID NO: 40, cyclo[Thr-Gln-Asp-Ala-Glu-Asp-Asn]] (cyclo(AEDNTQD)): the inhibition at 100 µM in test [1] was found to be 37.5%. Further, the “HEPG2/C3A migration Mean (%)” value in test [2] is given as 67.27%. Besides, the “A549 migration Mean (%)” value in test [3] was found to be 67.97%. Also, the “MCF7 migration Mean (%)” value in test [4] amounted to 51.27%.
In the case of `CC(=O)N[C@H](C(=O)N[C@H]1CSSC[C@@H](C(=O)O)NC(=O)[C@H](CC(N)=O)NC(=O)[C@H](CC(=O)O)NC(=O)[C@H](CCC(=O)O)NC(=O)[C@H](C)NC(=O)[C@H](CC(=O)O)NC1=O)[C@@H](C)O` [SEQ ID NO: 43, Ac-Thr-cyclo[Cys-Asp-Ala-Glu-Asp-Asn-Cys]] (Ac-TCDAEDNC-OH; disulfide 2-8), in test [5], the “Lung index Mean(‰)” value is on record as 7.11 ‰ and the “Fibrosis score Mean” value amounted to 2.72. Further, in test [1], the inhibition at 100 µM was 52% and the IC50 was 3.62 µM. Moreover, the “HEPG2/C3A migration Mean (%)” value in test [2] was 71.02%. Moreover, the “A549 migration Mean (%)” value in test [3] came to 83.37%. Besides, the “MCF7 migration Mean (%)” value in test [4] stood at 73.84%.
“Ac-TQDAEDN-NH2 [SEQ ID NO: 06, Ac-Thr-Gln-Asp-Ala-Glu-Asp-Asn-NH2]”: in test [5], the “Lung index Mean(‰)” value is listed as 7.17 ‰ and the “Fibrosis score Mean” value was 2.66. The inhibition at 100 µM in test [1] worked out at 17.7%. In addition, the “HEPG2/C3A migration Mean (%)” value in test [2] was 81.77%. The “A549 migration Mean (%)” value in test [3] is 80.41%. In addition, the “MCF7 migration Mean (%)” value in test [4] was found to be 51.95%.
As for “Ac-TQDAEDPTAS-NH2 [SEQ ID NO: 25, Ac-Thr-Gln-Asp-Ala-Glu-Asp-Pro-Thr-Ala-Ser-NH2]”, in test [5], the “Lung index Mean(‰)” value is listed as 7.42 ‰ and the “Fibrosis score Mean” value was determined as 2.62. In addition, the inhibition at 100 µM in test [1] is 33%. The “HEPG2/C3A migration Mean (%)” value in test [2] stood at 63.99%. Also, the “A549 migration Mean (%)” value in test [3] was determined as 62.95%. The “MCF7 migration Mean (%)” value in test [4] was determined as 61.75%.
As to `CC(=O)N[C@H](C(=O)N[C@H]1CSSC[C@@H](C(N)=O)NC(=O)[C@H](CC(N)=O)NC(=O)[C@H](CC(=O)O)NC(=O)[C@H](CCC(=O)O)NC(=O)[C@H](C)NC(=O)[C@H](CC(=O)O)NC1=O)[C@@H](C)O` [SEQ ID NO: 44, Ac-Thr-cyclo[Cys-Asp-Ala-Glu-Asp-Asn-Cys]-NH2] (Ac-TCDAEDNC-NH2; disulfide 2-8), in test [1], the inhibition at 100 µM was 52.9% and the IC50 was found to be 6.71 µM. Moreover, in test [2], the “HEPG2/C3A migration Mean (%)” value is given as 70.63%. In addition, the “A549 migration Mean (%)” value in test [3] was 73.63%. Besides, in test [4], the “MCF7 migration Mean (%)” value was 68.24%.
As for “Ac-TQDAEDNTASH-NH2 [SEQ ID NO: 33, Ac-Thr-Gln-Asp-Ala-Glu-Asp-Asn-Thr-Ala-Ser-His-NH2]”, in test [5], the “Lung index Mean(‰)” value was 7.37 ‰ and the “Fibrosis score Mean” value is recorded as 2.63. Moreover, in test [1], the inhibition at 100 µM came to 21.4%. The “HEPG2/C3A migration Mean (%)” value in test [2] worked out at 72.07%. Also, the “A549 migration Mean (%)” value in test [3] was 62.89%. Moreover, the “MCF7 migration Mean (%)” value in test [4] is reported as 47.13%.
Turning to “Ac-TQDPEDNTAS-NH2 [SEQ ID NO: 26, Ac-Thr-Gln-Asp-Pro-Glu-Asp-Asn-Thr-Ala-Ser-NH2]”, in test [5], the “Lung index Mean(‰)” value is 7.17 ‰ and the “Fibrosis score Mean” value amounted to 2.43. In addition, the inhibition at 100 µM in test [1] was 53.8%. In addition, the “HEPG2/C3A migration Mean (%)” value in test [2] was 55.16%. Also, in test [3], the “A549 migration Mean (%)” value was 73.25%. The “MCF7 migration Mean (%)” value in test [4] is given as 63.23%.
Regarding `C[C@@H]1NC(=O)[C@H]([C@@H](C)O)NC(=O)[C@H](CC(N)=O)NC(=O)[C@H](CC(=O)O)NC(=O)[C@H](CCC(=O)O)NC(=O)[C@@H]2CCCN2C(=O)[C@H](CC(=O)O)NC(=O)[C@H](CCC(N)=O)NC(=O)[C@H]([C@@H](C)O)NC(=O)[C@H](CO)NC1=O` [SEQ ID NO: 46, cyclo[Thr-Gln-Asp-Pro-Glu-Asp-Asn-Thr-Ala-Ser]] (cyclo(ASTQDPEDNT)), the inhibition at 100 µM in test [1] stood at 56.1%. The “HEPG2/C3A migration Mean (%)” value in test [2] is 64.77%. In test [3], the “A549 migration Mean (%)” value is on record as 36.12%. Besides, in test [4], the “MCF7 migration Mean (%)” value is recorded as 57.98%.
“Ac-TQDAEDPTA-NH2 [SEQ ID NO: 22, Ac-Thr-Gln-Asp-Ala-Glu-Asp-Pro-Thr-Ala-NH2]”: in test [5], the “Lung index Mean(‰)” value was 7.39 ‰ and the “Fibrosis score Mean” value worked out at 2.70. Besides, the inhibition at 100 µM in test [1] is 40.9%. In addition, the “HEPG2/C3A migration Mean (%)” value in test [2] came to 76.69%. For the same compound, in test [3], the “A549 migration Mean (%)” value is listed as 59.45%. Also, the “MCF7 migration Mean (%)” value in test [4] amounted to 48.64%.

As a reminder, the IC50 is the midpoint of a concentration-inhibition curve.
